Experimental findings from patent US11279735B2, “Cyclic peptide antibiotics” (priority 2017, dated 2022) are described below.

The subject of the assay is Escherichia coli (E. coli) strain CFT073 ATCC 700928. It counts as cell-based. The following applies: ATCC 700928, 22 h. In short, it runs like this:
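MICs were read after 22 h at 35 °C, with bacteria added to a final OD600 of 0.0005. Compounds were serially diluted 2-fold over ten concentrations from a top of 64, 4, 0.5 or 0.13 μg/mL (protocols 1–4). Medium was cation-adjusted Mueller Hinton II broth plus 0.002% Tween-80, following CLSI M07-A8.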

Converted amounts (≈) assume the structure as drawn. *1 amine or outer side, *2 acyl side, *3 side chain or, on linkers, in order; H or OH if unused. Where a SMILES comes first, the peptide text is derived from it. [ ]: non-standard residue; d: D form. The star is where a group is joined. X2 = CCCCCC[C@@H](OC[C@@H](C)N[*:1])[C@@H](C)C(=O)[*:2]; aThr = C[C@H](O)[C@H](N)C(=O)O; NMeL = CN[C@@H](CC(C)C)C(=O)O; Chg = N[C@H](C(=O)O)C1CCCCC1; Dap = NC[C@H](N)C(=O)O; X11 = OC[C@H](O)C*

The molecule `CCCCCCCCCC[C@H]1OC(=O)CNC(=O)[C@H](COCCO)NC(=O)[C@H](CO)NC(=O)[C@H]([C@@H](C)CC)NC(=O)[C@H](CC(C)C)N(C)C(=O)[C@@H]1C` [Example 48, (6S,9S,12S,15S,18R,19R)-19-decyl-6-(2-hydroxyethoxymethyl)-9-(hydroxymethyl)-15-isobutyl-16,18-dimethyl-12-[(1S)-1-methylpropyl]-1-oxa-4,7,10,13,16-pentazacyclononadecane-2,5,8,11,14,17-hexone] registered an MIC of 50 µM (≈ 37.1 µg/mL). In other words, the double-digit micromolar range.

In turn, `CC[C@@H](C)[C@@H]1NC(=O)[C@H](CC(C)C)N(C)C(=O)[C@H](C)[C@@H](CCCCC(C)(C)C)OC(=O)CNC(=O)[C@H]([C@H](C)O)NC(=O)[C@H](CN)NC1=O` [Example 49, (6S,9S,12S,15S,18R,19R)-9-(aminomethyl)-19-(5,5-dimethylhexyl)-6-[(1S)-1-hydroxyethyl]-15-isobutyl-16,18-dimethyl-12-[(1R)-1-methylpropyl]-1-oxa-4,7,10,13,16-pentazacyclononadecane-2,5,8,11,14,17-hexone] yielded an MIC of 3.1 µM (≈ 2.12 µg/mL). In turn, `CCCCCCCCCC[C@H]1OC(=O)CNC(=O)[C@H]([C@H](C)O)NC(=O)[C@H](CN)NC(=O)[C@H](CCCCOC)NC(=O)[C@H](CC(C)C)N(C)C(=O)[C@@H]1C` [Example 50, (6S,9S,12S,15S,18R,19R)-9-(aminomethyl)-19-decyl-6-[(1S)-1-hydroxyethyl]-15-isobutyl-12-(4-methoxybutyl)-16,18-dimethyl-1-oxa-4,7,10,13,16-pentazacyclononadecane-2,5,8,11,14,17-hexone] returned a minimal inhibitory concentration (MIC) of 25 µM (≈ 18.5 µg/mL). Under `CCCCCC[C@H]1OC(=O)CNC(=O)[C@H](COCCCN)NC(=O)[C@H](CN)NC(=O)[C@H](C2CCCCC2)NC(=O)[C@H](CC(C)C)N(C)C(=O)[C@@H]1C` [Example 51, (6S,9S,12S,15S,18R,19R)-9-(Aminomethyl)-6-((3-aminopropoxy)methyl)-12-cyclohexyl-19-hexyl-15-isobutyl-16,18-dimethyl-1-oxa-4,7,10,13,16-pentaazacyclononadecane-2,5,8,11,14,17-hexaone] stands 8.7 µM (≈ 6.3 µg/mL); under `CCCCCC[C@H]1OC(=O)CNC(=O)[C@H]([C@H](C)O)NC(=O)[C@H](CN)NC(=O)[C@H](C2CCCCC2)NC(=O)[C@H](CC(C)C)N(C)C(=O)[C@@H]1Cc1ccc(-c2ccccc2)cc1` [Example 54, (6S,9S,12S,15S,18R,19R)-18-([1,1′-Biphenyl]-4-ylmethyl)-9-(aminomethyl)-12-cyclohexyl-19-hexyl-6-((S)-1-hydroxyethyl)-15-isobutyl-16-methyl-1-oxa-4,7,10,13,16-pentaazacyclononadecane-2,5,8,11,14,17-hexaone], 8.7 µM (≈ 7.25 µg/mL). Under `CCCCCC[C@H]1OC(=O)CNC(=O)[C@H]([C@H](C)O)NC(=O)[C@H](CN)NC(=O)[C@H](C2CC3(CCC3)C2)NC(=O)[C@H](CC(C)C)N(C)C(=O)[C@@H]1C` [Example 55, (6S,9S,12S,15S,18R,19R)-9-(aminomethyl)-19-hexyl-6-((S)-1-hydroxyethyl)-15-isobutyl-16,18-dimethyl-12-(spiro[3.3]heptan-2-yl)-1-oxa-4,7,10,13,16-pentaazacyclononadecane-2,5,8,11,14,17-hexaone] stands 18 µM (≈ 12.5 µg/mL); under `CCCCCCCCCC[C@H]1OC(=O)CNC(=O)[C@H](Cc2c[nH]nn2)NC(=O)[C@H](CN)NC(=O)[C@H](C2CCCCC2)NC(=O)[C@H](CC(C)C)N(C)C(=O)[C@@H]1C` [Example 56, (6S,9S,12S,15S,18R,19R)-6-((1H-1,2,3-triazol-4-yl)methyl)-9-(aminomethyl)-12-cyclohexyl-19-decyl-15-isobutyl-16,18-dimethyl-1-oxa-4,7,10,13,16-pentaazacyclononadecane-2,5,8,11,14,17-hexaone], 4.4 µM (≈ 3.41 µg/mL); under `CCCCCC[C@H]1OC[C@@H](C)NC(=O)[C@H]([C@H](C)O)NC(=O)[C@H](CN)NC(=O)[C@H](C2CCCCC2)NC(=O)[C@H](CC(C)C)N(C)C(=O)[C@@H]1C` [Example 57, (3R,6S,9S,12S,15S,18R,19R)-9-(Aminomethyl)-12-cyclohexyl-19-hexyl-6-((S)-1-hydroxyethyl)-15-isobutyl-3,16,18-trimethyl-1-oxa-4,7,10,13,16-pentaazacyclononadecane-5,8,11,14,17-pentaone] (cyclo([Chg][Dap][aThr][X2][NMeL])), 2.9 µM (≈ 1.97 µg/mL). Then `CCCCCC[C@H]1OC(=O)CNC(=O)[C@H](CO[C@H]2C[C@H](N)C2)NC(=O)[C@H](CN)NC(=O)[C@H](C2CCCCC2)NC(=O)[C@H](CC(C)C)N(C)C(=O)[C@@H]1C` [Example 58, (6S,9S,12S,15S,18R,19R)-6-(((1r,3S)-3-Aminocyclobutoxy)methyl)-9-(aminomethyl)-12-cyclohexyl-19-hexyl-15-isobutyl-16,18-dimethyl-1-oxa-4,7,10,13,16-pentaazacyclononadecane-2,5,8,11,14,17-hexaone], with 6.3 µM (≈ 4.64 µg/mL); and `CCCCCC[C@H]1OC(=O)CNC(=O)[C@H]([C@H](C)O)NC(=O)[C@H](CN)NC(=O)[C@H](C2CCCCCC2)NC(=O)[C@H](CC(C)C)N(C)C(=O)[C@@H]1C` [Example 59, (6S,9S,12S,15S,18R,19R)-9-(Aminomethyl)-12-cycloheptyl-19-hexyl-6-((S)-1-hydroxyethyl)-15-isobutyl-16,18-dimethyl-1-oxa-4,7,10,13,16-pentaazacyclononadecane-2,5,8,11,14,17-hexaone], with 1.1 µM (≈ 0.764 µg/mL). For the molecule `CC(C)C[C@H]1C(=O)N[C@@H](C2CCCCC2)C(=O)N[C@@H](CN)C(=O)N[C@@H]([C@H](C)O)C(=O)NCC(=O)O[C@H](CCC2CC3CCC2C3)[C@@H](C)C(=O)N1C` (stereo partly drawn) [Example 60, (6S,9S,12S,15S,18R,19R)-9-(Aminomethyl)-19-(2-(bicyclo[2.2.1]heptan-2-yl)ethyl)-12-cyclohexyl-6-((S)-1-hydroxyethyl)-15-isobutyl-16,18-dimethyl-1-oxa-4,7,10,13,16-pentaazacyclononadecane-2,5,8,11,14,17-hexaone], the MIC worked out at 0.73 µM (≈ 0.525 µg/mL). This MIC lies about 1.5-fold lower than the previous one. Then `CCCCCCC1OC(=O)CNC(=O)[C@H]([C@H](C)O)NC(=O)[C@H](CN)NC(=O)[C@H]([C@H](C)CC)NC(=O)[C@H](CC(C)C)N(C)C(=O)C1(F)F` (stereo partly drawn) [Example 61, (6S,9S,12S,15S)-9-(Aminomethyl)-12-((R)-sec-butyl)-18,18-difluoro-19-hexyl-6-((S)-1-hydroxyethyl)-15-isobutyl-16-methyl-1-oxa-4,7,10,13,16-pentaazacyclononadecane-2,5,8,11,14,17-hexaone], with 6.3 µM (≈ 4.26 µg/mL); and `CC(C)C[C@H]1C(=O)N[C@@H](C2CCCCC2)C(=O)N[C@@H](CN)C(=O)N[C@@H]([C@H](C)O)C(=O)NCC(=O)O[C@H](CC2CC3CCC2C3)[C@@H](C)C(=O)N1C` (stereo partly drawn) [Example 62, (6S,9S,12S,15S,18R,19R)-9-(Aminomethyl)-19-(((exo)-bicyclo[2.2.1]heptan-2-yl)methyl)-12-cyclohexyl-6-((S)-1-hydroxyethyl)-15-isobutyl-16,18-dimethyl-1-oxa-4,7,10,13,16-pentaazacyclononadecane-2,5,8,11,14,17-hexaone], with 1.6 µM (≈ 1.13 µg/mL).

Molecule `CC(C)C[C@H]1C(=O)N[C@@H](C2CCCCC2)C(=O)N[C@@H](CN)C(=O)N[C@@H]([C@H](C)O)C(=O)NCC(=O)O[C@H](CCC(C)(C)C)[C@@H](C)C(=O)N1C` [Example 63, (6S,9S,12S,15S,18R,19R)-9-(aminomethyl)-12-cyclohexyl-19-(3,3-dimethylbutyl)-6-((S)-1-hydroxyethyl)-15-isobutyl-16,18-dimethyl-1-oxa-4,7,10,13,16-pentaazacyclononadecane-2,5,8,11,14,17-hexaone] registered a minimum inhibitory concentration (MIC) of 4.4 µM (≈ 3 µg/mL). Against the preceding molecule, the MIC is about 2.8-fold higher.

As to `COC(C)(C)CCCCCC[C@H]1OC(=O)CNC(=O)[C@H]([C@H](C)O)NC(=O)[C@H](CN)NC(=O)[C@H](C2CCCCC2)NC(=O)[C@H](CC(C)C)N(C)C(=O)[C@@H]1C` [Example 64, (6S,9S,12S,15S,18R,19R)-9-(Aminomethyl)-12-cyclohexyl-6-((S)-1-hydroxyethyl)-15-isobutyl-19-(7-methoxy-7-methyloctyl)-16,18-dimethyl-1-oxa-4,7,10,13,16-pentaazacyclononadecane-2,5,8,11,14,17-hexaone], the MIC was 2.2 µM (≈ 1.66 µg/mL). As to `CC(C)CCCCCC[C@H]1OC(=O)CNC(=O)[C@H]([C@H](C)O)NC(=O)[C@H](CN)NC(=O)[C@H](C2CCCCC2)NC(=O)[C@H](CC(C)C)N(C)C(=O)[C@@H]1C` [Example 65, (6S,9S,12S,15S,18R,19R)-9-(Aminomethyl)-12-cyclohexyl-6-((S)-1-hydroxyethyl)-15-isobutyl-16,18-dimethyl-19-(7-methyloctyl)-1-oxa-4,7,10,13,16-pentaazacyclononadecane-2,5,8,11,14,17-hexaone], the MIC worked out at 0.78 µM (≈ 0.564 µg/mL). Consider `CCCC[C@H]1OC(=O)CNC(=O)[C@H]([C@H](C)O)NC(=O)[C@H](CN)NC(=O)[C@H](C2CCCCC2)NC(=O)[C@H](CC(C)C)N(C)C(=O)[C@@H]1CCCC` [Example 66, (6S,9S,12S,15S,18R,19R)-9-(Aminomethyl)-18,19-dibutyl-12-cyclohexyl-6-((S)-1-hydroxyethyl)-15-isobutyl-16-methyl-1-oxa-4,7,10,13,16-pentaazacyclononadecane-2,5,8,11,14,17-hexaone], for which the MIC amounted to 1.3 µM (≈ 0.903 µg/mL). As for `CCCCCC[C@H]1OC[C@@H](C)NC(=O)[C@H](COC[C@@H](O)CO)NC(=O)[C@H](CN)NC(=O)[C@H](C2CCCCC2)NC(=O)[C@H](CC(C)C)N(C)C(=O)[C@@H]1C` [Example 67, (3R,6S,9S,12S,15S,18R,19R)-9-(Aminomethyl)-12-cyclohexyl-6-(((S)-2,3-dihydroxypropoxy)methyl)-19-hexyl-15-isobutyl-3,16,18-trimethyl-1-oxa-4,7,10,13,16-pentaazacyclononadecane-5,8,11,14,17-pentaone] (cyclo([Chg][Dap]S(X11)[X2][NMeL])), the minimal inhibitory concentration (MIC) turned out to be 8.8 µM (≈ 6.52 µg/mL). This MIC is about 6.8-fold higher than that of the molecule before.
